Assay results taken from patent US20230278972A1, “SUBSTITUTED HALOALKYL SULFONANILIDE HERBICIDES” (FMC Corporation, priority 2020, published 2023).

Assays:
Type in all cases: in vivo
[1] = system: Ryegrass, Italian (Italian ryegrass, Lolium multiflorum); assay: Test A preemergence, Ryegrass, Italian; details: Preemergence; for Ryegrass, Italian plant response rating: 125 g ai/ha, visual injury on 0 to 100 scale (0 no effect, 100 complete control), approximately 10 days; for Plant response rating, Ryegrass, Italian: 500 g ai/ha, 0 to 100 scale (0 no effect, 100 complete control)
How it was run: (§1)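 Formulated with a surfactant in a non-phytotoxic solvent, compounds are applied to loam–sand pots, either to bare soil immediately after seeding (preemergence) or to seedlings of 2 to 10 cm bearing one to two leaves (postemergence).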

[2] = system: ragweed (common ragweed, Ambrosia artemisiifolia); assay: Test A preemergence, ragweed; details: Preemergence; for Ragweed plant response rating: 125 g ai/ha, visual injury on 0 to 100 scale (0 no effect, 100 complete control), approximately 10 days; for Plant response rating, Ragweed: 500 g ai/ha, 0 to 100 scale (0 no effect, 100 complete control)
How it was run: as §1

[3] = system: blackgrass (Alopecurus myosuroides); assay: Test A postemergence, blackgrass; details: Postemergence, 0 to 100 scale (0 no effect, 100 complete control); for Plant response rating, Blackgrass: 125 g ai/ha, visual injury approx. 10 days; for Blackgrass plant response rating: 500 g ai/ha, visual injury vs untreated controls after approx. 10 days
How it was run: as §1

kochia (Bassia scoparia) [4] = assay: Test A preemergence, kochia; details: Preemergence; for Kochia plant response rating: 125 g ai/ha, visual injury on 0 to 100 scale (0 no effect, 100 complete control), approximately 10 days; for Plant response rating, Kochia: 500 g ai/ha, 0 to 100 scale (0 no effect, 100 complete control)
How it was run: as §1

[5] = system: wheat (Triticum aestivum); assay: Test A postemergence, wheat; details: Postemergence, 0 to 100 scale (0 no effect, 100 complete control); for Plant response rating, Wheat: 125 g ai/ha, visual injury approx. 10 days; for Wheat plant response rating: 500 g ai/ha, visual injury vs untreated controls after approx. 10 days
How it was run: (§2)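 Barnyardgrass, wheat and galium were treated postemergence at the one- to two-leaf stage (2 to 10 cm) with chemicals formulated in non-phytotoxic solvent plus surfactant, grown in loam soil–sand pots. Pigweed was sown in the same blend and given a preemergence directed soil spray.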

corn (Zea mays) = assay: Test A postemergence, corn; details: Postemergence, 0 to 100 scale (0 no effect, 100 complete control); for Plant response rating, Corn: 125 g ai/ha, visual injury approx. 10 days; for Corn plant response rating: 500 g ai/ha, visual injury vs untreated controls after approx. 10 days
How it was run: as §1

kochia (Bassia scoparia) [6] = assay: Test A postemergence, kochia; details: Postemergence, 0 to 100 scale (0 no effect, 100 complete control); for Plant response rating, Kochia: 125 g ai/ha, visual injury approx. 10 days; for Kochia plant response rating: 500 g ai/ha, visual injury vs untreated controls after approx. 10 days
How it was run: as §1

[7] = system: galium (catchweed bedstraw, Galium aparine); assay: Test A postemergence, galium; details: Postemergence, 0 to 100 scale (0 no effect, 100 complete control); for Plant response rating, Galium: 125 g ai/ha, visual injury approx. 10 days; for Galium plant response rating: 500 g ai/ha, visual injury vs untreated controls after approx. 10 days
How it was run: as §2

[8] = system: pigweed (Amaranthus retroflexus); assay: Test A postemergence, pigweed; details: Postemergence, 0 to 100 scale (0 no effect, 100 complete control); for Plant response rating, Pigweed: 125 g ai/ha, visual injury approx. 10 days; for Pigweed plant response rating: 500 g ai/ha, visual injury vs untreated controls after approx. 10 days
How it was run: as §1

[9] = system: barnyardgrass (Echinochloa crus-galli); assay: Test A postemergence, barnyardgrass; details: Postemergence, 0 to 100 scale (0 no effect, 100 complete control); for Plant response rating, Barnyardgrass: 125 g ai/ha, visual injury approx. 10 days; for Barnyardgrass plant response rating: 500 g ai/ha, visual injury vs untreated controls after approx. 10 days
How it was run: as §2

[10] = system: barnyardgrass (Echinochloa crus-galli); assay: Test A preemergence, barnyardgrass; details: Preemergence; for Barnyardgrass plant response rating: 125 g ai/ha, visual injury on 0 to 100 scale (0 no effect, 100 complete control), approximately 10 days; for Plant response rating, Barnyardgrass: 500 g ai/ha, 0 to 100 scale (0 no effect, 100 complete control)
How it was run: as §1

[11] = system: Ryegrass, Italian (Italian ryegrass, Lolium multiflorum); assay: Test A postemergence, Ryegrass, Italian; details: Postemergence, 0 to 100 scale (0 no effect, 100 complete control); for Plant response rating, Ryegrass, Italian: 125 g ai/ha, visual injury approx. 10 days; for Ryegrass, Italian plant response rating: 500 g ai/ha, visual injury vs untreated controls after approx. 10 days
How it was run: as §1

[12] = system: Foxtail, Giant (giant foxtail, Setaria faberi); assay: Test A preemergence, Foxtail, Giant; details: Preemergence; for Foxtail, Giant plant response rating: 125 g ai/ha, visual injury on 0 to 100 scale (0 no effect, 100 complete control), approximately 10 days; for Plant response rating, Foxtail, Giant: 500 g ai/ha, 0 to 100 scale (0 no effect, 100 complete control)
How it was run: as §1

[13] = system: ragweed (common ragweed, Ambrosia artemisiifolia); assay: Test A postemergence, ragweed; details: Postemergence, 0 to 100 scale (0 no effect, 100 complete control); for Plant response rating, Ragweed: 125 g ai/ha, visual injury approx. 10 days; for Ragweed plant response rating: 500 g ai/ha, visual injury vs untreated controls after approx. 10 days
How it was run: as §1

[14] = system: pigweed (Amaranthus retroflexus); assay: Test A preemergence, pigweed; details: for Pigweed plant response rating: 125 g ai/ha, visual injury on 0 to 100 scale (0 no effect, 100 complete control), approximately 10 days; for Plant response rating, Pigweed: 500 g ai/ha, 0 to 100 scale (0 no effect, 100 complete control)
How it was run: as §2

[15] = system: Foxtail, Giant (giant foxtail, Setaria faberi); assay: Test A postemergence, Foxtail, Giant; details: Postemergence, 0 to 100 scale (0 no effect, 100 complete control); for Plant response rating, Foxtail, Giant: 125 g ai/ha, visual injury approx. 10 days; for Foxtail, Giant plant response rating: 500 g ai/ha, visual injury vs untreated controls after approx. 10 days
How it was run: as §1

Compound | Ryegrass, Italian plant response rating [1] | Plant response rating, Ryegrass, Italian [1] | Ragweed plant response rating [2] | Plant response rating, Ragweed [2] | Plant response rating, Blackgrass [3] | Blackgrass plant response rating [3] | Kochia plant response rating (kochia (Bassia scoparia) [4]) | Plant response rating, Kochia (kochia (Bassia scoparia) [4]) | Plant response rating, Wheat [5] | Wheat plant response rating [5] | Plant response rating, Corn (corn (Zea mays)) | Corn plant response rating (corn (Zea mays)) | Plant response rating, Kochia (kochia (Bassia scoparia) [6]) | Kochia plant response rating (kochia (Bassia scoparia) [6]) | Plant response rating, Galium [7] | Galium plant response rating [7] | Plant response rating, Pigweed [8] | Pigweed plant response rating [8] | Plant response rating, Barnyardgrass [9] | Barnyardgrass plant response rating [9] | further results
COc1cnn(C)c(=O)c1-c1cc(NS(=O)(=O)C(F)(F)F)c(C)cc1C [Compound 65] | 30 | 60 | 0 | 0 | 0 | 0 | 0 | 60 | 0 | 50 | 0 | 0 | 0 | 0 | 0 | 30 | 0 | 0 | 0 | 70 | Barnyardgrass plant response rating [10]: 0; Plant response rating, Barnyardgrass [10]: 90; Plant response rating, Ryegrass, Italian [11]: 0; Ryegrass, Italian plant response rating [11]: 0; Foxtail, Giant plant response rating [12]: 80; Plant response rating, Foxtail, Giant [12]: 100; Plant response rating, Ragweed [13]: 0; Ragweed plant response rating [13]: 0; Pigweed plant response rating [14]: 0; Plant response rating, Pigweed [14]: 30; Plant response rating, Foxtail, Giant [15]: 0; Foxtail, Giant plant response rating [15]: 40
Cc1ccc(-c2ccnn(C)c2=O)cc1N(S(=O)(=O)C(F)(F)F)S(=O)(=O)C(F)(F)F [Compound 66] | 0 | 0 | 0 | 10 | 0 | 0 | 0 | 40 | 0 | 40 | 0 | 10 | 0 | 10 | 50 | 70 | 0 | 50 | 0 | 30 | Barnyardgrass plant response rating [10]: 0; Plant response rating, Barnyardgrass [10]: 90; Plant response rating, Ryegrass, Italian [11]: 0; Ryegrass, Italian plant response rating [11]: 0; Foxtail, Giant plant response rating [12]: 0; Plant response rating, Foxtail, Giant [12]: 60; Plant response rating, Ragweed [13]: 0; Ragweed plant response rating [13]: 0; Pigweed plant response rating [14]: 0; Plant response rating, Pigweed [14]: 30; Plant response rating, Foxtail, Giant [15]: 0; Foxtail, Giant plant response rating [15]: 30
Cc1cc(C)c(N(S(=O)(=O)C(F)(F)F)S(=O)(=O)C(F)(F)F)cc1-c1cc(Br)nn(C)c1=O [Compound 67] | 80 | 90 | 0 | 60 | 0 | 60 | 0 | 70 | 30 | 60 | 0 | 0 | 10 | 40 | 50 | 60 | 30 | 80 | 0 | 40 | Barnyardgrass plant response rating [10]: 70; Plant response rating, Barnyardgrass [10]: 100; Plant response rating, Ryegrass, Italian [11]: 0; Ryegrass, Italian plant response rating [11]: 60; Foxtail, Giant plant response rating [12]: 90; Plant response rating, Foxtail, Giant [12]: 100; Plant response rating, Ragweed [13]: 0; Ragweed plant response rating [13]: 10; Pigweed plant response rating [14]: 50; Plant response rating, Pigweed [14]: 80; Plant response rating, Foxtail, Giant [15]: 10; Foxtail, Giant plant response rating [15]: 70
